Experimental data reported in patent publication US20100086929A1, “DETECTION OF ANALYTES” (DO-COOP TECHNOLOGIES LTD., priority 2007, published 2010).
Where a name gives a salt, the structure may show the parent alone. One block for each compound: values may come before it. Where no end group is shown, it is not given here.

How the values were obtained:
[1] = Solubilizing CD-Dau, Daunorubicine and t-boc in Neowater (Example 7); type: physicochemical
Experimental: Required concentration: 3 mg/ml Neowater.
Properties: The material dissolves in EtOH.
5 different glass vials were prepared: • 1. 5 mg CD-Dau+1.2 ml Neowater™. • 2. 1.8 mg CD-Dau+600 μl acetone. • 3. 1.8 mg CD-Dau+150 μl acetone+450 μl Neowater™ (25% acetone). • 4. 1.8 mg CD-Dau+600 μl 10% *PEG (Polyethylene Glycol). • 5. 1.8 mg CD-Dau+600 μl acetone+600 μl Neowater™. • The samples were vortexed and spectrophotometer measurements were performed on vials #1, 4 and 5 • The vials were left opened in order to evaporate the acetone (vials #2, 3, and 5).
As soon as the acetone was evaporated from solutions #2, 4 and 5, the material sedimented slightly and an additional amount of acetone was added to the vials. This protocol enables the dissolving of the material in the presence of acetone and Neowater™ while at the same time enabling the subsequent evaporation of acetone from the solution (this procedure was performed twice). Following the second cycle the liquid phase was removed from the vile and additional amount of acetone was added to the sediment material. Once the sediment material dissolved it was merged with the liquid phase removed previously. The merged solution was evaporated again. […] Later 1.2 ml of 10% PEG+Neowater™ were added also and after some time the acetone was evaporated from the solution. Finalizing these procedures, the vials were merged to one vial (total volume of 3 ml). On top of this final volume 3 ml of acetone were added in order to dissolve the material and to receive a lucid liquefied solution, which was then evaporated again at 50° C. The solution didn't reach equilibrium due to the fact that once reaching such status the solution would have been separated. By avoiding equilibrium, the material hydration status was maintained and kept as liquid. After the solvent evaporated the material was transferred to a clean vial and was closed under vacuum conditions.
2 mg Daunorubicine+1 ml Neowater™ was prepared in one vial and 2 mg of Daunorubicine+1 ml RO was prepared in a second vial.
1.14 ml of EtOH was added to one glass vial containing 18.5 mg of t-boc (an oily material). This was then divided into two vials and 1.74 ml Neowater™ or RO water was added to the vials such that the solution comprised 25% EtOH. Following spectrophotometer measurements, the solvent was evaporated from the solution and Neowater™ was added to both vials to a final volume of 2.31 ml in each vial. The solutions in the two vials were merged to one clean vial and packaged for shipment under vacuum conditions.

[2] = cited from earlier work
[3] = Solubilization of retinol in Neowater, absorbance and filtration (Example 10); type: physicochemical
Experimental: Retinol (vitamin A) was purchased from Sigma (Fluka, 99% HPLC). Retinol was solubilized in Neowater™ under the following conditions. 1% retinol (0.01 gr in 1 ml) in EtOH and Neowater™ 0.5% retinol (0.005 gr in 1 ml) in EtOH and Neowater™ 0.5% retinol (0.125 gr in 25 ml) in EtOH and Neowater™ 0.25% retinol (0.0625 gr in 25 ml) in EtOH and Neowater™. […] Absorbance spectrum of retinol in EtOH: Retinol solutions were made in absolute EtOH, with different retinol concentrations, in order to create a calibration graph; absorbance spectrum was detected in a spectrophotometer. […] Actual concentration of retinol is also unknown since some oil drops are not dissolved in the water. […] The solutions were filtrated in […] filter.

[4] = Solubilization of taxol in DMSO or Neowater with 17% EtOH (Example 13); type: physicochemical
Experimental: The following experiments were performed in order to ascertain whether the carrier composition comprising nanostructures was capable of dissolving material taxol (Paclitaxel) at a final concentration of 0.5 mM.
Solubilization: 0.5 mM Taxol solution was prepared (0.0017 gr in 4 ml) in either DMSO or Neowater™ with 17% EtOH. Absorbance was detected with a spectrophotometer.

[5] = Taxol in Neowater by slow solvent exchange, HPLC after storage (Example 16); type: physicochemical; details: taxol dispersed in Neowater, 6 month storage at −20° C.
Experimental: Solubilization: 0.5 mM Taxol solution was prepared (0.0017 gr in 4 ml). […] At the end of the procedure, less than 40% ethanol remained in the solution, leading to 0.08% of ethanol in the final administered concentration. The solution was sterilized using a 0.2 μm filter. Taxol was separately prepared in DMSO (0.5 mM). Both solutions were kept at −20° C. Absorbance was detected with a spectrophotometer.

[6] = Solubilization of peptides in Neowater (Example 9); type: physicochemical; details: Neowater at 0.5 mM
Experimental: In addition, the effect of the peptides on Skov-3 cells was measured in order to ascertain whether the carrier composition comprising nanostructures influenced the cytotoxic activity of the peptides.
Solubilization: All seven peptides (Peptide X, X-5FU, NLS-E, Palm-PFPSYK (CMFU), […]-NH2, NLS-p2-LHRH, and F-LH-RH-palm kGFPSK) were dissolved in Neowater™ at 0.5 mM. Spectrophotometric measurements were taken.

Compound: COc1cccc2c1C(=O)c1c(O)c3c(c(O)c1C2=O)C[C@@](O)(C(C)=O)C[C@@H]3O[C@H]1C[C@H](N)[C@H](O)[C@H](C)O1 [Daunorubicine, Cerubidine hydrochloride]
dissolving ([1]; 2 mg in 1 ml Neowater): dissolves without difficulty
dissolving ([1]; 2 mg in 1 ml RO): dissolves without difficulty
solubility in water [2]: known not to dissolve in water

Compound: Daidzein—daunomycin conjugate [CD-Dau]
dissolving ([1]; Vial #1, 100% Neowater, 5 mg in 1.2 ml): sedimented after a few hours
dissolving ([1]; Vial #2, 100% acetone, 1.8 mg in 600 μl): 48 hours later the material sedimented partially
dissolving ([1]; Vial #3, 25% acetone in Neowater): didn't dissolve very well
dissolving ([1]; Vial #4, 10% PEG+Neowater): dissolved better than the CD-Dau in vial #1
dissolving ([1]; Vial #5, acetone then Neowater, acetone evaporated): as the acetone evaporated the material partially sediment to the bottom of the vial
solubility in water [2]: known not to dissolve in water

Compound: PFPSYKLRPG-NH2
dissolving [6]: dissolved

Results, then the compound that gave them:

retinol concentration in EtOH with similar absorbance pattern ([3]; 0.25% retinol in Neowater): ~0.03125%
retinol in the solutions following filtration ([3]; 0.25% retinol in Neowater, 1.5% EtOH, 0.44 and 0.2 filter): less than 0.03125%
retinol concentration in EtOH with similar absorbance pattern ([3]; 0.5% retinol in Neowater): ~0.125%
Compound: CC1=C(/C=C/C(C)=C/C=C/C(C)=C/CO)C(C)(C)CCC1 [Retinol]

dissolving ([4]; 0.5 mM in DMSO): dissolved
dissolving ([4]; 0.5 mM in Neowater with 17% EtOH): dissolved
structural changes on storage (HPLC) [5]: no structural changes
Compound: CC(=O)O[C@H]1C(=O)[C@@]2(C)[C@H]([C@H](OC(=O)c3ccccc3)[C@]3(O)C[C@H](OC(=O)[C@H](O)[C@@H](NC(=O)c4ccccc4)c4ccccc4)C(C)=C1C3(C)C)[C@]1(OC(C)=O)CO[C@@H]1C[C@@H]2O [Taxol, Paclitaxel]

dissolving [6]: dissolved
Compound: F-LH-RH-palm kGFPSK

dissolving [6]: dissolved
Compound: Palm-PFPSYK (CMFU)
